Test results from US12624044B2, “SMARCA degraders and uses thereof” (Kymera Therapeutics, Inc., priority 2019, dated 2026).

Experiments:
Type in all cases: cell-based
[1] = target: T1, SMARCA4 (Homo sapiens, UniProt P51532); assay: SMARCA4 Western blot MV4-11 degradation; details: 24 h; for Dmax: MV4-11, MV4-11 cells, read-out: SMARCA4 WB MV411 degradation 24 h: Average Dmax %; for DC50: MV4-11 cells, read-out: SMARCA4 WB MV411 degradation 24 h: Average external-Abs DC50
T1 construct: SMARCA2 and SMARCA4 protein degradation in MV4-11 cells; endogenous in cells; host or cells: MV4-11
T1 sequence (P51532 whole entry): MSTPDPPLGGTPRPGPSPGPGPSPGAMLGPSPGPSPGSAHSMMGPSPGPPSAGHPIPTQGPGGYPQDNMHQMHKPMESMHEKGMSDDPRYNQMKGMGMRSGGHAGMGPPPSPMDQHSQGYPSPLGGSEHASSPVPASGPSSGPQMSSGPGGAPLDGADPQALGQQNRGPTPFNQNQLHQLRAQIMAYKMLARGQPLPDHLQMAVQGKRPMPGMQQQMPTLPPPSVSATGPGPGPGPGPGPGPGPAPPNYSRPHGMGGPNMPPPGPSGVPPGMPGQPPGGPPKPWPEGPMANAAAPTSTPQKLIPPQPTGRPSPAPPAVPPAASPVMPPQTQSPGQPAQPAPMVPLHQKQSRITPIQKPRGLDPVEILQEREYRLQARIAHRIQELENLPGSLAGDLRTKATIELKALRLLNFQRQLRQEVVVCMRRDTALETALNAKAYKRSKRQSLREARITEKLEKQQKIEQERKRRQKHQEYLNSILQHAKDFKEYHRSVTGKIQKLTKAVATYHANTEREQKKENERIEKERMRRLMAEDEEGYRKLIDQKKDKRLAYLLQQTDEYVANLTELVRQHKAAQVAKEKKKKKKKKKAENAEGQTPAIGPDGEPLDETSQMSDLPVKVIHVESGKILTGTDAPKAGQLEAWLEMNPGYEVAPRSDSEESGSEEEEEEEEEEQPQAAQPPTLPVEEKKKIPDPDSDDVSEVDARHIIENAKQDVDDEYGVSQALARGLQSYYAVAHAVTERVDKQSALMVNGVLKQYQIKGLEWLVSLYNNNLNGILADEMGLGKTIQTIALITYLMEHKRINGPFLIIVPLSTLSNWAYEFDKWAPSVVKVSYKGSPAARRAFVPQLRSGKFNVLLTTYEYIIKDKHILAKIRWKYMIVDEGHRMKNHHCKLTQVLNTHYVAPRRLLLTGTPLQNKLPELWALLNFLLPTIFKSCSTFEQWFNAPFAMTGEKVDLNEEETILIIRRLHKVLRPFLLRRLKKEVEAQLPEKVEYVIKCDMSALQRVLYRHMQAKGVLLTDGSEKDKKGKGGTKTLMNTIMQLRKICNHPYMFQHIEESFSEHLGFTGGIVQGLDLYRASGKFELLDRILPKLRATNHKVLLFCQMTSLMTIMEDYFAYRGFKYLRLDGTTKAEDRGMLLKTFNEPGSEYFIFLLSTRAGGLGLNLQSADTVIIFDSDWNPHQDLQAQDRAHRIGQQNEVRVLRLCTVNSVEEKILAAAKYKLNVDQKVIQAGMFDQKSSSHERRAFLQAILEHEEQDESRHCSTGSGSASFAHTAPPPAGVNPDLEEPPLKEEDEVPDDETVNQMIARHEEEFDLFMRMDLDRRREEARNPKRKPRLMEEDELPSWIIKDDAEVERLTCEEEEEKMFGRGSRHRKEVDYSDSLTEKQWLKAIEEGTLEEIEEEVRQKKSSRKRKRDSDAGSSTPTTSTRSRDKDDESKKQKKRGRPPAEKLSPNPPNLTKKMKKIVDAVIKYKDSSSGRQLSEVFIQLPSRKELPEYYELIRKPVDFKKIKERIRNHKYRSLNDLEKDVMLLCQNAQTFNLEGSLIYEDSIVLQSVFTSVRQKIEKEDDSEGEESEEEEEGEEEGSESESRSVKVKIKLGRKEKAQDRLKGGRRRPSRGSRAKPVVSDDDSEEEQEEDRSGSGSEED
Procedure, shortened: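 MV4-11 cells treated with compound for 24 h, lysed in RIPA with protease/phosphatase inhibitors, and SMARCA2 and SMARCA4 (BRG1) levels assessed by Western blot with β-actin loading control and LI-COR fluorescent read-out. Maximal degradation (Dmax %) after 24 h binned into letter codes.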

[2] = target: T2, SMARCA2 (Homo sapiens, UniProt P51531); assay: MSD SMARCA2 degradation in NCI-H1299 cell line (24 h); design: HC: NCI-H1299 cells treated with DMSO; host or cells: NCI-H1299
T2 sequence (P51531 whole entry): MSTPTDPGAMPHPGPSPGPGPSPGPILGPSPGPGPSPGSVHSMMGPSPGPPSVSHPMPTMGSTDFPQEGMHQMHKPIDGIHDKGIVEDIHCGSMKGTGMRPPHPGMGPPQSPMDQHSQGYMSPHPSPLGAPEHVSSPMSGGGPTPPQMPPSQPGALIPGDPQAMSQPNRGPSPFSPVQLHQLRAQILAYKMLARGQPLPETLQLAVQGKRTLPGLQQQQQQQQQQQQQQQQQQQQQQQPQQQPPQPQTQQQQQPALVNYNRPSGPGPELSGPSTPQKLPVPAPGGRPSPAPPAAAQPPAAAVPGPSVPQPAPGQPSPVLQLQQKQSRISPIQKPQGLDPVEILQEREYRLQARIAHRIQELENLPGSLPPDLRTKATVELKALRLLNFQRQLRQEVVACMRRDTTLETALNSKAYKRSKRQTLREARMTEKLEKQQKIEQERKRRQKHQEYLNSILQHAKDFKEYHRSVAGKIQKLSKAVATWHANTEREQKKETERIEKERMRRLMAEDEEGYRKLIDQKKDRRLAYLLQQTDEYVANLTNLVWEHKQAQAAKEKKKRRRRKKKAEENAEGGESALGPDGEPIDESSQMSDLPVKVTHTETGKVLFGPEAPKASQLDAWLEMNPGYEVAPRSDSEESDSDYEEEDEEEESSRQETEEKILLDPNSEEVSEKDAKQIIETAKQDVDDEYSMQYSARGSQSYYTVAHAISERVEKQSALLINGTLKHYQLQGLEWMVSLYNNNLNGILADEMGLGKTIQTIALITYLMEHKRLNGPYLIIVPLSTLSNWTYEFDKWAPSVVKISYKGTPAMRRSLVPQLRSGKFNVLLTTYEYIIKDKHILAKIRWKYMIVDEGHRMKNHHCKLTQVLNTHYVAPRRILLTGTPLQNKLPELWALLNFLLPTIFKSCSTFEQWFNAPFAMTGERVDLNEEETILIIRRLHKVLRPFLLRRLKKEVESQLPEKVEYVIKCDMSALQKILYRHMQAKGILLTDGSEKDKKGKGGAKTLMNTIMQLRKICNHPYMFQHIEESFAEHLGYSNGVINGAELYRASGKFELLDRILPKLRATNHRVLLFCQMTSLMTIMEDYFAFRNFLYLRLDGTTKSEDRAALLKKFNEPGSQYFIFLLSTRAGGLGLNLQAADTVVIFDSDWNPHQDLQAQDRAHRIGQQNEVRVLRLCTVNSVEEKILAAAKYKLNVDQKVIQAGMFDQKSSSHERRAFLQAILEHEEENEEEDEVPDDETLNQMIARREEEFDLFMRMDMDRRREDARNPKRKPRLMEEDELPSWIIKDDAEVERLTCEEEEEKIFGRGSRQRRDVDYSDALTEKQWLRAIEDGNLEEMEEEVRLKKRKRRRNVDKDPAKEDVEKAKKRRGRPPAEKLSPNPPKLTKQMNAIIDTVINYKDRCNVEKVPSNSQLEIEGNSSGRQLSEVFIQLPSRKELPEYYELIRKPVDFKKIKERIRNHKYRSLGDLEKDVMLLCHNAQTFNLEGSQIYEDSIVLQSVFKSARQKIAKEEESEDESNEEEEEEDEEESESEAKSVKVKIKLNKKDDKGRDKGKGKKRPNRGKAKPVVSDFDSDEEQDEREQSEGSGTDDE
Procedure, shortened: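 SMARCA2 measured by MSD electrochemiluminescence (primary 0.3 ug/ml, secondary 1 ug/ml) on lysates from NCI-H1299 cells exposed to compounds for 24 h across nine 3-fold dilutions. Signal scaled from A2780 cells (no SMARCA2) to DMSO-treated H1299 controls, and maximal degradation after 24 h reported in letter categories.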

[3] = target: T2, SMARCA2; assay: MSD SMARCA2 degradation in A549 cell line; details: 24 h; for Dmax: A549, A549 cells; for DC50: A549 cells, read-out: SMARCA2 MSD A549 degradation 24 h: Average external-Abs DC50
Procedure, shortened: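 SMARCA2 remaining was measured by MSD electrochemiluminescence on RIPA lysates (anti-SMARCA2 plus SULFO-TAG anti-rabbit). Prior exposure: 24 h of A549 cells to a 10-point, 3-fold dilution series topping at 1000 nM final; Dmax % given as graded codes.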

Row | Dmax ([2]; NCI-H1299, NCI-H1299 cells) [%] | DC50 ([2]; NCI-H1299 cells, read-out: SMARCA2 MSD H1299 degradation 24 h: External Abs-DC50) [µM] | SMILES | Dmax [1] [%] | DC50 [1] [µM] | Dmax [3] [%] | DC50 [3] [µM]
1 | 70 to 90 | 0.501 to 1 | Cc1ncsc1-c1ccc(CNC(=O)[C@@H]2C[C@@H](O)CN2C(=O)[C@@H](NC(=O)CN(C)Cc2ccc(N3CCN(c4cc(-c5ccccc5O)nnc4N)CC3)cc2)C(C)(C)C)cc1 [I-462] | < 50 | > 1 | 70 to 90 | 0.501 to 1
2 |  |  | Cc1ncsc1-c1ccc(CNC(=O)[C@@H]2C[C@@H](O)CN2C(=O)[C@@H](NC(=O)c2ccc(N3CCC(n4cc(-c5cc(-c6ccccc6O)nnc5N)cn4)CC3)cc2)C(C)(C)C)cc1 [I-515] | > 90 | < 0.1 | < 50 | > 1
3 |  |  | Cc1ncsc1-c1ccc(CNC(=O)[C@@H]2C[C@@H](O)CN2C(=O)[C@@H](NC(=O)C2CCN(Cc3cnc(N4C5CCC4CN(c4cc(-c6ccccc6O)nnc4N)C5)nc3)CC2)C(C)(C)C)cc1 [I-384] |  | < 0.1 |  | 0.1 to 0.5
4 |  |  | Cc1ncsc1-c1ccc(CNC(=O)[C@@H]2C[C@@H](O)CN2C(=O)[C@@H](NC(=O)CC2CC(N3CCC(c4cnc(N5C6CCC5CN(c5cc(-c7ccccc7O)nnc5N)C6)nc4)CC3)C2)C(C)(C)C)cc1 (some centres unmarked) [I-512] | < 50 | > 1 | 70 to 90 | 0.1 to 0.5
5 |  |  | Cc1ncsc1-c1ccc(CNC(=O)[C@@H]2C[C@@H](O)CN2C(=O)[C@@H](NC(=O)COCC#Cc2cnc(N3C4CCC3CN(c3cc(-c5ccccc5O)nnc3N)C4)nc2)C(C)(C)C)cc1 [I-340] | > 90 | < 0.1 | > 90 | 0.1 to 0.5
6 |  |  | Cn1c(=O)n(C2CCC(=O)NC2=O)c2ccc(C3CC4(C3)CC(N3CCC(c5cnc(N6C7CCC6CN(c6cc(-c8ccccc8O)nnc6N)C7)nc5)CC3)C4)cc21 (single isomer, unassigned) [I-536 (P2), 3-(5-(6-(4-(2-(3-(3-amino-6-(2-hydroxyphenyl)pyridazin-4-yl)-3,8-diazabicyclo[3.2.1]octan-8-yl)pyrimidin-5-yl)piperidin-1-yl)spiro[3.3]heptan-2-yl)-3-methyl-2-oxo-2,3-dihydro-1H-benzo[d]imidazol-1-yl)piperidine-2,6-dione] |  | < 0.1 |  | < 0.1
7 |  |  | Cc1ncsc1-c1ccc(CNC(=O)[C@@H]2C[C@@H](O)CN2C(=O)[C@@H](NC(=O)C2CCN(Cc3cnc(N4C5CCC4CN(c4cc(-c6ccccc6O)nnc4N)C5)nc3)CC2)C(C)(C)C)cc1 [I-338] | > 90 | < 0.1 | > 90 | 0.1 to 0.5
8 |  |  | Cc1ncsc1-c1ccc(CNC(=O)[C@@H]2C[C@@H](O)CN2C(=O)[C@@H](NC(=O)[C@@H]2CCN(Cc3cnc(N4C5CCC4CN(c4cc(-c6ccccc6O)nnc4N)C5)nc3)C2)C(C)(C)C)cc1 [I-386, (2S,4R)-1-((2S)-2-((3R)-1-((2-(3-(3-amino-6-(2-hydroxyphenyl)pyridazin-4-yl)-3,8-diazabicyclo[3.2.1]octan-8-yl)pyrimidin-5-yl)methyl)pyrrolidine-3-carboxamido)-3,3-dimethylbutanoyl)-4-hydroxy-N-(4-(4-methylthiazol-5-yl)benzyl)pyrrolidine-2-carboxamide] | > 90 | 0.1 to 0.5 | 50 to 70 | 0.501 to 1
9 |  |  | Cn1c(=O)n(C2CCC(=O)NC2=O)c2ccc([C@H]3CC[C@H](N4CCC(c5nccc(N6C7CCC6CN(c6cc(-c8ccccc8O)nnc6N)C7)n5)CC4)CC3)cc21 (some centres unmarked) [I-280, 3-(5-((1r,4r)-4-(4-(4-(3-(3-amino-6-(2-hydroxyphenyl)pyridazin-4-yl)-3,8-diazabicyclo[3.2.1]octan-8-yl)pyrimidin-2-yl)piperidin-1-yl)cyclohexyl)-3-methyl-2-oxo-2,3-dihydro-1H-benzo[d]imidazol-1-yl)piperidine-2,6-dione] | > 90 | < 0.1 | > 90 | < 0.1
10 |  |  | Cn1c(=O)n(C2CCC(=O)NC2=O)c2ccc([C@H]3CC[C@@H](N4CCC(c5nccc(N6C7CCC6CN(c6cc(-c8ccccc8O)nnc6N)C7)n5)CC4)CC3)cc21 (some centres unmarked) [I-279, 3-(5-((1s,4s)-4-(4-(4-(3-(3-amino-6-(2-hydroxyphenyl)pyridazin-4-yl)-3,8-diazabicyclo[3.2.1]octan-8-yl)pyrimidin-2-yl)piperidin-1-yl)cyclohexyl)-3-methyl-2-oxo-2,3-dihydro-1H-benzo[d]imidazol-1-yl)piperidine-2,6-dion] | > 90 | < 0.1 | > 90 | < 0.1
11 |  |  | Cc1ncsc1-c1ccc(CNC(=O)[C@@H]2C[C@@H](O)CN2C(=O)[C@@H](NC(=O)C[C@H]2CC[C@H](c3cnc(N4C5CCC4CN(c4cc(-c6ccccc6O)nnc4N)C5)nc3)CC2)C(C)(C)C)cc1 [I-332] | > 90 | < 0.1 | > 90 | < 0.1
12 |  |  | Cc1ncsc1-c1ccc(CNC(=O)[C@@H]2C[C@@H](N)CN2C(=O)[C@@H](NC(=O)CCCNCc2ccc(C#Cc3cc(NC(=O)Nc4cc(F)ncc4CO)ccn3)cc2)C(C)(C)C)cc1 [I-492] | < 50 | > 1 | < 50 | > 1
13 |  |  | Cc1ncsc1-c1ccc(CNC(=O)[C@@H]2C[C@@H](O)CN2C(=O)[C@@H](NC(=O)CC2CCC(N3CCC(c4cnc(N5C6CCC5CN(c5cc(-c7ccccc7O)nnc5N)C6)nc4)CC3)CC2)C(C)(C)C)cc1 (some centres unmarked) [I-511] | > 90 | < 0.1 | > 90 | 0.1 to 0.5
14 |  |  | CC(C)(C)[C@H](NC(=O)C1(F)CC1)C(=O)N1C[C@H](O)C[C@H]1C(=O)NCc1ccc(-c2scnc2-c2ccc3cn[nH]c3c2)cc1OCCc1ccc(CN2CCN(c3cc(-c4ccccc4O)nnc3N)CC2)cc1 [I-447, (2S,4R)—N-(4-(4-(1H-indazol-6-yl)thiazol-5-yl)-2-(4-((4-(3-amino-6-(2-hydroxyphenyl)pyridazin-4-yl)piperazin-1-yl)methyl)phenethoxy)benzyl)-1-((S)-2-(1-fluorocyclopropanecarboxamido)-3,3-dimethylbutanoyl)-4-hydroxypyrrolidine-2-carboxamide] | > 90 | < 0.1 | > 90 | 0.1 to 0.5
15 |  |  | Nc1nnc(-c2ccccc2O)cc1-c1cnn(C2CCN(C3CCC(Nc4cccc5c4C(=O)N(C4CCC(=O)NC4=O)C5=O)CC3)CC2)c1 (centres unmarked) [I-322] | > 90 | < 0.1 | > 90 | < 0.1
16 |  |  | COc1ccccc1-c1cc(N2CC3CCC(C2)N3c2ncc(C3CCN(CCCc4ccc5c(c4)n(C)c(=O)n5C4CCC(=O)NC4=O)CC3)cn2)c(N)nn1 (centres unmarked) [I-326] | 50 to 70 | 0.1 to 0.5 | < 50 | > 1
17 |  |  | Cc1ncsc1-c1ccc(CNC(=O)[C@@H]2C[C@@H](O)CN2C(=O)[C@@H](NC(=O)[C@@H](C)N2CCC(c3cnc(N4C5CCC4CN(c4cc(-c6ccccc6O)nnc4N)C5)nc3)CC2)C(C)(C)C)cc1 [I-482] | > 90 | > 1 | 70 to 90 | 0.501 to 1
18 |  |  | Cc1ncsc1-c1ccc(CNC(=O)[C@@H]2C[C@@H](O)CN2C(=O)[C@@H](NC(=O)CCN2CCN(Cc3ccc(-c4cc(-c5ccccc5O)nnc4N)cc3)CC2)C(C)(C)C)cc1 [I-474] | 70 to 90 |  | < 50 | > 1
19 |  |  | Cc1ncsc1-c1ccc(CNC(=O)[C@@H]2C[C@@H](O)CN2C(=O)[C@@H](NC(=O)C[C@H]2CC[C@H](c3nccc(N4C5CCC4CN(c4cc(-c6ccccc6O)nnc4N)C5)n3)CC2)C(C)(C)C)cc1 [I-364] | > 90 | < 0.1 | > 90 | 0.1 to 0.5
20 |  |  | Nc1nnc(-c2ccccc2O)cc1-c1cnn(C2CCN([C@H]3CC[C@H](CNc4ccc5c(c4)C(=O)N(C4CCC(=O)NC4=O)C5=O)CC3)CC2)c1 (some centres unmarked) [I-325, 5-((((1r,4r)-4-(4-(4-(3-amino-6-(2-hydroxyphenyl)pyridazin-4-yl)-1H-pyrazol-1-yl)piperidin-1-yl)cyclohexyl)methyl)amino)-2-(2,6-dioxopiperidin-3-yl)isoindoline-1,3-dione] | 70 to 90 | < 0.1 | 70 to 90 | < 0.1
21 |  |  | Nc1nnc(-c2ccccc2O)cc1-c1cnn(C2CCN(C3CCC(CNc4cccc5c4C(=O)N(C4CCC(=O)NC4=O)C5=O)CC3)CC2)c1 (centres unmarked) [I-324] | 70 to 90 | < 0.1 | 70 to 90 | < 0.1
22 |  |  | Cc1ncsc1-c1ccc(CNC(=O)[C@@H]2C[C@@H](O)CN2C(=O)[C@@H](NC(=O)C2CN(Cc3cnc(N4C5CCC4CN(c4cc(-c6ccccc6O)nnc4N)C5)nc3)C2)C(C)(C)C)cc1 [I-385] | > 90 | < 0.1 | 50 to 70 | 0.501 to 1
23 |  |  | Cc1ncsc1-c1ccc(CNC(=O)[C@@H]2C[C@@H](O)CN2C(=O)[C@@H](NC(=O)[C@H]2CC[C@H](c3nccc(N4C5CCC4CN(c4cc(-c6ccccc6O)nnc4N)C5)n3)CC2)C(C)(C)C)cc1 [I-363] | > 90 | < 0.1 | > 90 | 0.1 to 0.5
